Consider 34 compounds from ChEMBL document CHEMBL6120963, “Discovery of Novel PROTAC SIRT6 Degraders with Potent Efficacy against Hepatocellular Carcinoma” (J Med Chem, 2024).

The source made the active and inactive calls. The rule behind the calls is not given here.

Common to all, as to format: cell-based
The target in assay [1] is T1, Protein cereblon/NAD-dependent protein deacylase sirtuin-6 (Homo sapiens, UniProt Q8N6T7+Q96SW2). The assay is described as follows: PROTAC activity at CRBN/SIRT6 in human SK-HEP1 cells assessed as induction of SIRT6 degradation at 2 uM incubated for 36 hrs by In-Cell ELISA relative to control. In general terms: An ELISA detects its analyte on a solid surface through an enzyme-linked reagent.
T1 sequence (Q8N6T7 2-355 limits assumed): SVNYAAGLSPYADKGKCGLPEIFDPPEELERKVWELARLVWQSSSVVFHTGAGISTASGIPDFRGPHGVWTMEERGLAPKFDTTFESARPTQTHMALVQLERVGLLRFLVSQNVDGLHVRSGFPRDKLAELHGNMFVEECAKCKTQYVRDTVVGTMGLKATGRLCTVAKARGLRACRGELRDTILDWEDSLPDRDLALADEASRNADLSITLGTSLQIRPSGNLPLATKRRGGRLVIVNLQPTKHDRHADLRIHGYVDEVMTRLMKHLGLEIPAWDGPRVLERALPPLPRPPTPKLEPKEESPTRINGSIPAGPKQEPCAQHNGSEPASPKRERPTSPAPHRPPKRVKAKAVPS
T1 sequence (Q96SW2 whole entry partner): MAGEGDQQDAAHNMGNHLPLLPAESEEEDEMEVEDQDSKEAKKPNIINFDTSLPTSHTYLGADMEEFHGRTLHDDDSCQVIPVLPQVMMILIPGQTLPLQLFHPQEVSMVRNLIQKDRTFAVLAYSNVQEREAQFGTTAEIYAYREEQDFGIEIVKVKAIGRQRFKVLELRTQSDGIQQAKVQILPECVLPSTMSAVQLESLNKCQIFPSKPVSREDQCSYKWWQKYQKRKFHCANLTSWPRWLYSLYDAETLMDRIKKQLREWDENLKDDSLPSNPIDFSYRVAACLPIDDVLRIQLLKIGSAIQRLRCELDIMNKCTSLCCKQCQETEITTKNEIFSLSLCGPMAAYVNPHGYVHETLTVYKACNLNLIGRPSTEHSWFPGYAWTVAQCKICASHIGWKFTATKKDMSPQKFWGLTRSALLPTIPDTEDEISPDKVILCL

Assay [2] has as its target T1, Protein cereblon/NAD-dependent protein deacylase sirtuin-6. The assay is described as follows: PROTAC activity at CRBN/SIRT6 in human SK-HEP1 cells assessed as induction of SIRT6 degradation at 200 nM incubated for 36 hrs by In-Cell ELISA relative to control.
Assay [3] has the same target. The assay is described as follows: PROTAC activity at CRBN/SIRT6 in human SK-HEP1 cells assessed as induction of SIRT6 degradation at 2 to 3 uM incubated for 36 hrs by Western blot analysis. The conditions noted are these: dose 2-3 µM. In general terms: Immunoblotting shows a protein as a band on a membrane.
For assay [4] the target is unchanged. The assay is described as follows: PROTAC activity at CRBN/SIRT6 in human SK-HEP1 cells assessed as induction of SIRT6 degradation at 0.5 uM incubated for 36 hrs by In-Cell ELISA relative to control.
The target is the same in assay [5]. The assay is described as follows: PROTAC activity at CRBN/SIRT6 in human SK-HEP1 cells assessed as induction of SIRT6 degradation at 5 uM incubated for 36 hrs by In-Cell ELISA relative to control.

`Nc1cc(N2CCN(CCNCC3C4CN(c5cc6c(cc5F)C(=O)N(C5CCC(=O)NC5=O)C6=O)CC34)CC2)ccc1[N+](=O)[O-]` (centres undefined): in assay [1], the Activity was < 10%.

Regarding `Nc1cc(N2CCN(CC3CN(c4ccc5c(c4)C(=O)N(C4CCC(=O)NC4=O)C5=O)C3)CC2)ccc1[N+](=O)[O-]` (centres undefined), the Activity worked out at 11% in assay [1] and 50.6% in assay [2].

Consider `Nc1cc(N2CCN(CCNCCCC3CCN(c4cc5c(cc4F)C(=O)N(C4CCC(=O)NC4=O)C5=O)CC3)CC2)ccc1[N+](=O)[O-]` (centres undefined), for which the result in assay [3] was Active. The Activity in assay [1] amounted to 97.9%; in assay [2], 64.3%.

Regarding `Nc1cc(N2CCN(CC3CCCN(c4ccc5c(c4)C(=O)N(C4CCC(=O)NC4=O)C5=O)C3)CC2)ccc1[N+](=O)[O-]` (centres undefined), in assay [3], the result was Active. For the same compound, the Activity in assay [1] was 87.1%; in assay [2] it was < 10%.

Turning to `Nc1cc(N2CCN(CCCC(=O)Nc3cccc4c3C(=O)N(C3CCC(=O)NC3=O)C4=O)CC2)ccc1[N+](=O)[O-]` (centres undefined), the results for the Activity in assay [4] and in assay [5] were 72.1% and 87.3%, respectively.

Regarding `Nc1cc(N2CCN(C(=O)COc3cccc4c3C(=O)N(C3CCC(=O)NC3=O)C4=O)CC2)ccc1[N+](=O)[O-]` (centres undefined), the Activity worked out at 32.2% in assay [4] and 15.8% in assay [5].

As to `Nc1cc(N2CCN(CCNCCC3CCN(c4ccc5c(c4)C(=O)N(C4CCC(=O)NC4=O)C5=O)CC3)CC2)ccc1[N+](=O)[O-]` (centres undefined), the Activity in assay [1] stood at 73.6%; in assay [2], 49.3%.

As for `Nc1cc(N2CCN(CCOCCOCCOCCOCC(=O)Nc3cccc4c3C(=O)N(C3CCC(=O)NC3=O)C4=O)CC2)ccc1[N+](=O)[O-]` (centres undefined), the Activity in assay [4] worked out at 27.8%.

With `Nc1cc(N2CCN(CCNCC3CCCN(c4cc5c(cc4F)C(=O)N(C4CCC(=O)NC4=O)C5=O)C3)CC2)ccc1[N+](=O)[O-]` (centres undefined), the outcome in assay [3] was Active. For the same compound, the values for the Activity in assay [1] and in assay [2] were 98.5% and 81.2%, respectively.

For the compound `Nc1cc(N2CCN(CC(=O)Nc3cccc4c3C(=O)N(C3CCC(=O)NC3=O)C4=O)CC2)ccc1[N+](=O)[O-]` (centres undefined), the Activity was < 5% in assay [4] and 17.4% in assay [5].

For the compound `Nc1cc(N2CCN(CCNCC3C4CN(c5ccc6c(c5)C(=O)N(C5CCC(=O)NC5=O)C6=O)CC34)CC2)ccc1[N+](=O)[O-]` (centres undefined), the Activity in assay [1] turned out to be 15.4%.

For the compound `Nc1cc(N2CCN(CC3CN(c4cc5c(cc4F)C(=O)N(C4CCC(=O)NC4=O)C5=O)C3)CC2)ccc1[N+](=O)[O-]` (centres undefined), the Activity in assay [1] is 20.6%; in assay [2] it was < 10%.

For `Nc1cc(N2CCN(CC3C4CN(c5ccc6c(c5)C(=O)N(C5CCC(=O)NC5=O)C6=O)CC34)CC2)ccc1[N+](=O)[O-]` (centres undefined), the Activity in assay [1] came out at 17.8%.

For the compound `Nc1cc(N2CCN(CCOCCOCCOCC(=O)Nc3cccc4c3C(=O)N(C3CCC(=O)NC3=O)C4=O)CC2)ccc1[N+](=O)[O-]` (centres undefined), the Activity in assay [4] was 44.9%; in assay [5], 80.8%. Further, in assay [3], the result was Active.

Regarding `Nc1cc(N2CCN(CCCCC(=O)Nc3cccc4c3C(=O)N(C3CCC(=O)NC3=O)C4=O)CC2)ccc1[N+](=O)[O-]` (centres undefined), the results for the Activity in assay [4] and in assay [5] were 18.2% and 49.3%, respectively.

For the compound `Nc1cc(N2CCN(CCC3CCN(c4ccc5c(c4)C(=O)N(C4CCC(=O)NC4=O)C5=O)CC3)CC2)ccc1[N+](=O)[O-]` (centres undefined), the result in assay [3] was Active. Besides, the Activity was 79.6% in assay [1] and 11.2% in assay [2].

For the compound `Nc1cc(N2CCN(CC3C4CN(c5cc6c(cc5F)C(=O)N(C5CCC(=O)NC5=O)C6=O)CC34)CC2)ccc1[N+](=O)[O-]` (centres undefined), the result in assay [3] was Active. In addition, the Activity was 95.6% in assay [1] and 89.4% in assay [2].

For the compound `Nc1cc(N2CCN(CCNCC3CCN(c4ccc5c(c4)C(=O)N(C4CCC(=O)NC4=O)C5=O)C3)CC2)ccc1[N+](=O)[O-]` (centres undefined), the Activity in assay [1] is < 10%.

On to `Nc1cc(N2CCN(CCCCCC(=O)Nc3cccc4c3C(=O)N(C3CCC(=O)NC3=O)C4=O)CC2)ccc1[N+](=O)[O-]` (centres undefined), for which the Activity was 47.8% in assay [4] and 36.8% in assay [5].

`Nc1cc(N2CCN(CCC3CCN(c4cc5c(cc4F)C(=O)N(C4CCC(=O)NC4=O)C5=O)CC3)CC2)ccc1[N+](=O)[O-]` (centres undefined): the Activity in assay [1] is 19.8%; in assay [2], < 10%.

In the case of `Nc1cc(N2CCN(CCNCC3CCN(c4cc5c(cc4F)C(=O)N(C4CCC(=O)NC4=O)C5=O)CC3)CC2)ccc1[N+](=O)[O-]` (centres undefined), the result in assay [3] was Active. The Activity was found to be 84.7% in assay [1] and 60.5% in assay [2].

In the case of `Nc1cc(N2CCN(CCNCC3CN(c4cc5c(cc4F)C(=O)N(C4CCC(=O)NC4=O)C5=O)C3)CC2)ccc1[N+](=O)[O-]` (centres undefined), the results for the Activity in assay [1] and in assay [2] were 83.5% and 46.1%, respectively.

In the case of `Nc1cc(N2CCN(CCNCCCC3CCN(c4ccc5c(c4)C(=O)N(C4CCC(=O)NC4=O)C5=O)CC3)CC2)ccc1[N+](=O)[O-]` (centres undefined), the result in assay [3] was Active. Moreover, the Activity in assay [1] came out at 82.4%; in assay [2], 53.2%.

As for `Nc1cc(N2CCN(CCNC(=O)COc3cccc4c3C(=O)N(C3CCC(=O)NC3=O)C4=O)CC2)ccc1[N+](=O)[O-]` (centres undefined), the Activity in assay [4] worked out at 85.7%; in assay [5] it was 72.3%.

In the case of `Nc1cc(N2CCN(C(=O)CNc3cccc4c3C(=O)N(C3CCC(=O)NC3=O)C4=O)CC2)ccc1[N+](=O)[O-]` (centres undefined), the Activity in assay [5] was 15.4%.

Consider `Nc1cc(N2CCN(CCNCCC3CCN(c4cc5c(cc4F)C(=O)N(C4CCC(=O)NC4=O)C5=O)CC3)CC2)ccc1[N+](=O)[O-]` (centres undefined), for which the result in assay [3] was Active. Moreover, in assay [1], the Activity stood at 74.8%.

`Nc1cc(N2CCN(CCNC(=O)CNc3cccc4c3C(=O)N(C3CCC(=O)NC3=O)C4=O)CC2)ccc1[N+](=O)[O-]` (centres undefined): the Activity in assay [4] is 86.5%; in assay [5] it was 91.4%. In addition, the result in assay [3] was Active.

Consider `Nc1cc(N2CCN(CCCC3CCN(c4ccc5c(c4)C(=O)N(C4CCC(=O)NC4=O)C5=O)CC3)CC2)ccc1[N+](=O)[O-]` (centres undefined), for which the result in assay [3] was Active. Moreover, the Activity was found to be 98.9% in assay [1] and 84.9% in assay [2].

Turning to `Nc1cc(N2CCN(CCNCC3CCCN(c4ccc5c(c4)C(=O)N(C4CCC(=O)NC4=O)C5=O)C3)CC2)ccc1[N+](=O)[O-]` (centres undefined), the values for the Activity in assay [1] and in assay [2] were 51.6% and 74.2%, respectively.

In the case of `Nc1cc(N2CCN(CCOCCOCC(=O)Nc3cccc4c3C(=O)N(C3CCC(=O)NC3=O)C4=O)CC2)ccc1[N+](=O)[O-]` (centres undefined), the Activity in assay [4] was 46.7%; in assay [5] it was 90.6%. Also, in assay [3], the outcome was Active.

As for `Nc1cc(N2CCN(CCC(=O)Nc3cccc4c3C(=O)N(C3CCC(=O)NC3=O)C4=O)CC2)ccc1[N+](=O)[O-]` (centres undefined), the Activity in assay [4] came out at 25.6%; in assay [5], 47.2%.

Consider `Nc1cc(N2CCN(CCNCC3CCN(c4cc5c(cc4F)C(=O)N(C4CCC(=O)NC4=O)C5=O)C3)CC2)ccc1[N+](=O)[O-]` (centres undefined), for which the outcome in assay [3] was Active. Further, the figures for the Activity in assay [1] and in assay [2] were 78.4% and 66.2%, respectively.

`Nc1cc(N2CCN(CCNCC3CCN(c4ccc5c(c4)C(=O)N(C4CCC(=O)NC4=O)C5=O)CC3)CC2)ccc1[N+](=O)[O-]` (centres undefined): in assay [1], the Activity was < 10%.

Consider `Nc1cc(N2CCN(CC3CCN(c4cc5c(cc4F)C(=O)N(C4CCC(=O)NC4=O)C5=O)C3)CC2)ccc1[N+](=O)[O-]` (centres undefined), for which the outcome in assay [3] was Active. The Activity in assay [1] was found to be 99.8%; in assay [2] it was 94.5%.
